In assay [1] the test system is Mycobacterium tuberculosis H37Rv (ATCC-27294). Kind of assay: MIC by MABA (Microplate Alamar Blue Assay), antimicrobial activity. The note with it: M. tuberculosis H37Rv (ATCC 27294); for MIC: MABA, 5 days incubation + 24 h Alamar Blue; for Inhibition (%): concentration not given. The format is cell-based. In general terms: Resazurin is reduced to fluorescent resorufin, in cell work by metabolically active cells.

Assay [2] relates to promastigote forms of Leishmania amazonensis. The assay is described as follows: Leishmanicide evaluation in vitro, live parasites counted by fluorescence. The format is cell-based. The note with it: for Percentage of parasitic inhibition: L. amazonensis promastigotes; for leishmanicide activity (inhibition): Table 6. As to the method: The evaluation of the Leishmanicide activity of the type I and II 1,2,3-triazole derivatives was made through in vitro essays against promastigote forms of Leishmania amazonensis, and after the incubation with compounds, live parasites are counted by fluorescence, thus obtaining as a result, the percentage of inhibition of the compounds evaluated.
Essays were performed in triplicate using pentamidine as a positive pattern with a 160 μg/mL concentration.
The evaluation of the leishmanicide activity of type I (Formula XII) and II (Formula XIII) imidazole derivatives was performed through in vitro essays against promastigote forms of Leishmania amazonensis, and after the incubation with compounds, live parasites are counted by fluorescence, thus obtaining as a result the inhibition percentage of the evaluated compounds.
Essays were performed in triplicate using pentamidine as a positive pattern with a 160 μg/mL concentration, determining which compounds evaluated inhibited the parasite in lower concentrations and the percentage higher than the pattern. Table 6 lists the results obtained in the leishmanicide evaluation of derivatives 140a 148a 146a, 149a.

For the next assay, the system named is M. tuberculosis. Conditions: background statement; cited from earlier work.

Where “and” joins values, the source holds several entries; their conditions need not be identical. Equal entries are not always repeated.

Here are results for 18 compounds from patent publication US8436027B2, “Azole compounds used as tuberculostatic and leishmanicide agents” (priority 2005, dated 2013).

For `O=Cc1cn(-c2ccc(Cl)cc2)nn1` [114a, 4-carboxaldehyde-1-(4-chlorophenyl)-1H-1,2,3-triazole], the MIC (commonly the lowest concentration that inhibits growth of the organism) in assay [1] was 5 µg/mL and 5.0 µg/mL.

Regarding `O=Cc1cn(-c2ccc(Br)cc2)nn1` [114b, 4-carboxaldehyde-1-(4-bromophenyl)-1H-1,2,3-triazole], in assay [1], the MIC was determined as 5.0 µg/mL and the “Inhibition (%)” value was determined as 100%. Taken in the same sequence, the figures for `Cc1ccc(-n2cc(C=O)nn2)cc1` [114c, 4-carboxaldehyde-1-(4-methylphenyl)-1H-1,2,3-triazole] were 2.5 µg/mL and 100%. Taken in the same sequence, the figures for `COc1ccc(-n2cc(C=O)nn2)cc1` [114d, 4-carboxaldehyde-1-(4-methoxyphenyl)-1H-1,2,3-triazole] were 10.0 µg/mL and 100%. For `COc1ccc(OC)c(-n2cc(C=O)nn2)c1` [114e, 4-carboxaldehyde-1-(2,5-dimethoxyphenyl)-1H-1,2,3-triazole], in that order: 80.0 µg/mL and 59%. Regarding `O=Cc1cn(-c2cccc(Cl)c2)nn1` [114f, 4-carboxaldehyde-1-(3-chlorophenyl)-1H-1,2,3-triazole], in assay [2] (Concentration 20 μg/mL), the “Percentage of parasitic inhibition” value is on record as “No inhibition”. Regarding `O=Cc1cn(-c2cc(Cl)cc(Cl)c2)nn1` [114g, 4-carboxaldehyde-1-(3,5-dichlorophenyl)-1H-1,2,3-triazole], the minimum inhibitory concentration (MIC) in assay [1] is 2.5 µg/mL.

Take `N#Cc1cccc(-n2cc(C=O)nn2)c1` [114h, 4-carboxaldehyde-1-(3-cyanophenyl)-1H-1,2,3-triazole]: in assay [1], the MIC is 20.0 µg/mL. Still for that read-out and setting: next, `N#Cc1ccc(-n2cc(C=O)nn2)cc1` [114i, 4-carboxaldehyde-1-(4-cyanophenyl)-1H-1,2,3-triazole]: 5.0 µg/mL; `O=Cc1cn(-c2ccc([N+](=O)[O-])cc2)nn1` [114j, 4-carboxaldehyde-1-(4-nitrophenyl)-1H-1,2,3-triazole]: 20.0 µg/mL. As for `COc1ccccc1-n1cc(C=O)nn1` [114l, 4-carboxaldehyde-1-(2-methoxyphenyl)-1H-1,2,3-triazole], in assay [1], the MIC worked out at 40.0 µg/mL and the “Inhibition (%)” value was 94%. `COc1ccc(-n2cc(C=O)nn2)cc1OC` [114m, 4-carboxaldehyde 1-(3,4-dimethoxyphenyl)-1H-1,2,3-triazole]: the minimum inhibitory concentration (MIC) in assay [1] is 80.0 µg/mL. As to `FC(F)c1cn(-c2ccc(Cl)cc2)nn1` [121a, 1-(4-chlorophenyl)-4-difluoromethyl-1H-1,2,3-triazole], the MIC in assay [1] turned out to be 40.0 µg/mL. On the same count and under the same terms, next, `O=[N+]([O-])c1ccc(-n2cc(C(F)F)nn2)cc1` [121j, 1-(4-nitrophenyl)-4-difluoromethyl-1H-1,2,3-triazole]: 40.0 µg/mL. Take `NNC(=O)c1ccncc1` [INH, isoniazide]: the “minimum inhibitory concentration (MIC)” value in the assay with M. tuberculosis is 0.02 to 0.06 µg/mL.

In the case of `Clc1ccc(/N=C/c2cn(-c3ccc(Cl)cc3)nn2)cc1` [compound 119, (E)-4-chloride-N-((1-(4-chlorophenyl)-1H-1,2,3-triazole-4-il)methylene)benzenamine], in assay [1], the MIC was 40 µg/mL.

Turning to `Brc1ccc(/N=C/c2cn(-c3ccc(Br)cc3)nn2)cc1` [compound 120, (E)-4-bromo-N-((1-(4-bromophenyl)-1H-1,2,3-triazole-4-il)methylene)benzenamine], in assay [1], the minimal inhibitory concentration (MIC) stood at 20 µg/mL. Consider `N=C(N)c1ccc(OCCCCCOc2ccc(C(=N)N)cc2)cc1` [pentamidine], for which the “leishmanicide activity (inhibition)” value in assay [2] (Conc. 5 μ/mL), in assay [2] (Conc. 10 μ/mL), in assay [2] (Conc. 20 μ/mL) and in assay [2] (Conc. 80 μ/mL) was “No inhibition” throughout. The “Percentage of parasitic inhibition” value in assay [2] (Concentration 5 μg/mL), in assay [2] (Concentration 10 μg/mL), in assay [2] (Concentration 20 μg/mL) and in assay [2] (Concentration 80 μg/mL) was “No inhibition” each time.
